Bounds are passed on as bounds.

The test relates to ATF4 luciferase reporter in HEK293T cells. In words: ATF4-Luc assay (ATF4 luciferase reporter, tunicamycin-treated HEK293T cells). Conditions: Homo sapiens, HEK-293T; HEK293T cells carrying the ATF4 luciferase reporter, 1 μg/mL tunicamycin, 7 hours. In kind it is cell-based, human. A general note: In a reporter assay the amount or activity of a reporter protein is the signal.
Broadly, the EC50 is the concentration giving half of the maximal effect. For the molecule `Cc1ccc(OCC(=O)NC23CC(NC(=O)COc4ccc(Cl)c(F)c4)(C2)C3)c(C)n1` [Compound 232, 2-(4-chloro-3-fluorophenoxy)-N-(3-{2-[(2,6-dimethylpyridin-3-yl)oxy]acetamido}bicyclo[1.1.1]pentan-1-yl)acetamide], the concentration giving a half-maximal response (EC50) was 500 to 2000 nM.

Take `O=C(COc1ccnc(C(F)(F)F)c1)NC12CC(NC(=O)COc3ccc(Cl)c(F)c3)(C1)C2` [Compound 233, 2-(4-chloro-3-fluorophenoxy)-N-[3-(2-{[2-(trifluoromethyl)pyridin-4-yl]oxy}acetamido)bicyclo[1.1.1]pentan-1-yl]acetamide]: the EC50 was in the range of 10 to 50 nM.

For the molecule `Cc1cc(OCC(=O)NC23CC(NC(=O)COc4ccc(Cl)c(F)c4)(C2)C3)cnc1C` [Compound 234, 2-(4-chloro-3-fluorophenoxy)-N-(3-{2-[(5,6-dimethylpyridin-3-yl)oxy]acetamido}bicyclo[1.1.1]pentan-1-yl)acetamide], the concentration giving a half-maximal response (EC50) was 50 to 250 nM.

Regarding `CC(=O)c1ccc(OCC(=O)NC23CC(NC(=O)COc4ccc(Cl)c(F)c4)(C2)C3)cn1` [Compound 235, 2-[(6-acetylpyridin-3-yl)oxy]-N-{3-[2-(4-chloro-3-fluorophenoxy)acetamido]0-bicyclo[1.1.1]pentan-1-yl}acetamide], the EC50 lay in the range of 50 to 250 nM.

`Nc1nc(Cl)ccc1OCC(=O)NC12CC(NC(=O)COc3ccc(Cl)c(F)c3)(C1)C2` [Compound 236, 2-[(2-amino-6-chloropyridin-3-yl)oxy]-N-{3-[2-(4-chloro-3-fluorophenoxy)acetamido]bicyclo[1.1.1]pentan-1-yl}acetamide]: the half-maximal effective concentration (EC50) lay within 10 to 50 nM.

Turning to `Cc1ccc(OCC(=O)NC23CC(NC(=O)COc4ccc(Cl)c(F)c4)(C2)C3)c(Cl)n1` [Compound 237, 2-(4-chloro-3-fluorophenoxy)-N-(3-{2-[(2-chloro-6-methylpyridin-3-yl)oxy]acetamido}bicyclo[1.1.1]pentan-1-yl)acetamide], the concentration for a half-maximal effect (EC50) was 50 to 250 nM.

`N#Cc1ccc(OCC(=O)NC23CC(NC(=O)COc4ccc(Cl)c(F)c4)(C2)C3)cn1` [Compound 238, 2-(4-chloro-3-fluorophenoxy)-N-(3-{2-[(6-cyanopyridin-3-yl)oxy]acetamido}bicyclo[1.1.1]pentan-1-yl)acetamide]: the EC50 lay in the range of 10 to 50 nM.

For the molecule `CCc1nc(C)ccc1OCC(=O)NC12CC(NC(=O)COc3ccc(Cl)c(F)c3)(C1)C2` [Compound 239, 2-(4-chloro-3-fluorophenoxy)-N-(3-{2-[(2-ethyl-6-methylpyridin-3-yl)oxy]acetamido}bicyclo[1.1.1]pentan-1-yl)acetamide], the EC50 is more than 2000 nM.

For the molecule `O=C(COc1ccc(Cl)c(F)c1)NC12CC(NC(=O)COc3cnc(F)c(Cl)c3)(C1)C2` [Compound 240, 2-(4-chloro-3-fluorophenoxy)-N-(3-{2-[(5-chloro-6-fluoropyridin-3-yl)oxy]acetamido}bicyclo[1.1.1]pentan-1-yl)acetamide], the EC50 was less than 10 nM.

With `COc1ccc(OCC(=O)NC23CC(NC(=O)COc4ccc(Cl)c(F)c4)(C2)C3)cn1` [Compound 241, 2-(4-chloro-3-fluorophenoxy)-N-(3-{2-[(6-methoxypyridin-3-yl)oxy]acetamido}bicyclo[1.1.1]pentan-1-yl)acetamide], the 50% effective concentration (EC50) is 10 to 50 nM.

Take `Cc1cc(OCC(=O)NC23CC(NC(=O)COc4ccc(Cl)c(F)c4)(C2)C3)cnc1C#N` [Compound 242, 2-(4-chloro-3-fluorophenoxy)-N-(3-{2-[(6-cyano-5-methylpyridin-3-yl)oxy]acetamido}bicyclo[1.1.1]pentan-1-yl)acetamide]: the concentration for a half-maximal effect (EC50) fell in the range of 10 to 50 nM.

`Cc1cc(Cl)ncc1OCC(=O)NC12CC(NC(=O)COc3ccc(Cl)c(F)c3)(C1)C2` [Compound 243, 2-(4-chloro-3-fluorophenoxy)-N-(3-{2-[(6-chloro-4-methylpyridin-3-yl)oxy]acetamido}bicyclo[1.1.1]pentan-1-yl)acetamide]: the 50% effective concentration (EC50) is 250 to 500 nM.

Take `Cc1cc(OCC(=O)NC23CC(NC(=O)COc4ccc(Cl)c(F)c4)(C2)C3)cnc1F` [Compound 244, 2-(4-chloro-3-fluorophenoxy)-N-(3-{2-[(6-fluoro-5-methylpyridin-3-yl)oxy]acetamido}bicyclo[1.1.1]pentan-1-yl)acetamide]: the EC50 was less than 10 nM.

On to `Cc1ccc(OCC(=O)NC23CC(NC(=O)COc4ccc(Cl)c(F)c4)(C2)C3)c(F)n1` [Compound 245, 2-(4-chloro-3-fluorophenoxy)-N-(3-{2-[(2-fluoro-6-methylpyridin-3-yl)oxy]acetamido}bicyclo[1.1.1]pentan-1-yl)acetamide], for which the 50% effective concentration (EC50) was 10 to 50 nM.

For `COc1cc(OCC(=O)NC23CC(NC(=O)COc4ccc(Cl)c(F)c4)(C2)C3)cnc1F` [Compound 246, 2-(4-chloro-3-fluorophenoxy)-N-(3-{2-[(6-fluoro-5-methoxypyridin-3-yl)oxy]acetamido}bicyclo[1.1.1]pentan-1-yl)acetamide], the EC50 fell in the range of 10 to 50 nM.

Turning to `Cc1cc(F)ncc1OCC(=O)NC12CC(NC(=O)COc3ccc(Cl)c(F)c3)(C1)C2` [Compound 247, 2-(4-chloro-3-fluorophenoxy)-N-(3-{2-[(6-fluoro-4-methylpyridin-3-yl)oxy]acetamido}bicyclo[1.1.1]pentan-1-yl)acetamide], the EC50 lay in the range of 50 to 250 nM.

On to `CC(C)c1ccc(OCC(=O)NC23CC(NC(=O)COc4ccc(Cl)c(F)c4)(C2)C3)cn1` [Compound 248, 2-(4-chloro-3-fluorophenoxy)-N-[3-(2-{[6-(propan-2-yl)pyridin-3-yl]oxy}acetamido)bicyclo[1.1.1]pentan-1-yl]acetamide], for which the concentration giving a half-maximal response (EC50) was 50 to 250 nM.

As for `Cc1nc(F)ccc1OCC(=O)NC12CC(NC(=O)COc3ccc(Cl)c(F)c3)(C1)C2` [Compound 249, 2-(4-chloro-3-fluorophenoxy)-N-(3-{2-[(6-fluoro-2-methylpyridin-3-yl)oxy]acetamido}bicyclo[1.1.1]pentan-1-yl)acetamide], the concentration for a half-maximal effect (EC50) was 250 to 500 nM.

`Nc1ncc(OCC(=O)NC23CC(NC(=O)COc4ccc(Cl)c(F)c4)(C2)C3)cc1Cl` [Compound 250, 2-[(6-amino-5-chloropyridin-3-yl)oxy]-N-{3-[2-(4-chloro-3-fluorophenoxy)acetamido]bicyclo[1.1.1]pentan-1-yl}acetamide]: the EC50 lay within 50 to 250 nM.

For the molecule `O=C(COc1ccc(C2CC2)nc1)NC12CC(NC(=O)COc3ccc(Cl)c(F)c3)(C1)C2` [Compound 251, 2-(4-chloro-3-fluorophenoxy)-N-(3-{2-[(6-cyclopropylpyridin-3-yl)oxy]acetamido}bicyclo[1.1.1]pentan-1-yl)acetamide], the EC50 was in the range of 10 to 50 nM.

As for `COc1ccc(OCC(=O)NC23CC(NC(=O)COc4ccc(Cl)c(F)c4)(C2)C3)c(C)n1` [Compound 252, 2-(4-chloro-3-fluorophenoxy)-N-(3-{2-[(6-methoxy-2-methylpyridin-3-yl)oxy]acetamido}bicyclo[1.1.1]pentan-1-yl)acetamide], the 50% effective concentration (EC50) was 50 to 250 nM.

Take `COc1ncc(OCC(=O)NC23CC(NC(=O)COc4ccc(Cl)c(F)c4)(C2)C3)cc1C` [Compound 253, 2-(4-chloro-3-fluorophenoxy)-N-(3-{2-[(6-methoxy-5-methylpyridin-3-yl)oxy]acetamido}bicyclo[1.1.1]pentan-1-yl)acetamide]: the EC50 lay within 10 to 50 nM.

Take `O=C(COc1ccc(Cl)c(F)c1)NC12CC(NC(=O)COc3cnc4cc[nH]c4c3)(C1)C2` [Compound 254, 2-(4-chloro-3-fluorophenoxy)-N-(3-{2-[(1H-pyrrolo[3,2-b]pyridin-6-yl)oxy]acetamido}bicyclo[1.1.1]pentan-1-yl)acetamide]: the EC50 lay within 250 to 500 nM.

Consider `O=C(COc1ccc(Cl)c(F)c1)NC12CC(NC(=O)COc3cnc4ccoc4c3)(C1)C2` [Compound 255, 2-(4-chloro-3-fluorophenoxy)-N-(3-{2-[(furo[3,2-b]pyridin-6-yl)oxy]acetamido}bicyclo[1.1.1]pentan-1-yl)acetamide], for which the concentration giving a half-maximal response (EC50) fell in the range of 50 to 250 nM.

For the molecule `O=C(COc1ccc(Cl)c(F)c1)NC12CC(NC(=O)COc3ccc(C(F)(F)F)nn3)(C1)C2` [Compound 256, 2-(4-chloro-3-fluorophenoxy)-N-[3-(2-{[6-(trifluoromethyl)pyridazin-3-yl]oxy}acetamido)bicyclo[1.1.1]pentan-1-yl]acetamide], the concentration giving a half-maximal response (EC50) was in the range of 50 to 250 nM.

For `CS(=O)(=O)c1ccc(OCC(=O)NC23CC(NC(=O)COc4ccc(Cl)c(F)c4)(C2)C3)cn1` [Compound 257, 2-(4-chloro-3-fluorophenoxy)-N-[3-(2-{[6-(methanesulfonyl)pyridin-3-yl]oxy}acetamido)bicyclo[1.1.1]pentan-1-yl]acetamide], the EC50 lay in the range of 250 to 500 nM.

With `O=C(COc1ccc(Cl)c(F)c1)NC12CC(NC(=O)COc3ccc4c(c3)OC(F)(F)O4)(C1)C2` [Compound 258, 2-(4-chloro-3-fluorophenoxy)-N-(3-{2-[(2,2-difluoro-2H-1,3-benzodioxol-5-yl)oxy]acetamido}bicyclo[1.1.1]pentan-1-yl)acetamide], the EC50 is less than 10 nM.

In the case of `NCc1ccc(OCC(=O)NC23CC(NC(=O)COc4ccc(Cl)c(F)c4)(C2)C3)cn1` [Compound 259, 2-{[6-(aminomethyl)pyridin-3-yl]oxy}-N-{3-[2-(4-chloro-3-fluorophenoxy)acetamido]bicyclo[1.1.1]pentan-1-yl}acetamide], the EC50 was 250 to 500 nM.

As for `O=C(COc1ccc(Cl)c(F)c1)NC12CC(NC(=O)COc3ccc(Cl)c(I)c3)(C1)C2` [Compound 260, 2-(4-chloro-3-fluorophenoxy)-N-{3-[2-(4-chloro-3-iodophenoxy)acetamido]-bicyclo[1.1.1]pentan-1-yl}acetamide], the concentration for a half-maximal effect (EC50) was less than 10 nM.

`Cc1noc(C)c1-c1cc(OCC(=O)NC23CC(NC(=O)COc4ccc(Cl)c(F)c4)(C2)C3)ccc1Cl` [Compound 261, 2-[4-chloro-3-(3,5-dimethyl-1,2-oxazol-4-yl)phenoxy]-N-{3-[2-(4-chloro-3-fluorophenoxy)acetamido]bicyclo[1.1.1]pentan-1-yl}acetamide]: the 50% effective concentration (EC50) was in the range of 10 to 50 nM.

As to `N#CCc1cc(OCC(=O)NC23CC(NC(=O)COc4ccc(Cl)c(F)c4)(C2)C3)ccc1Cl` [Compound 262, 2-[4-chloro-3-(cyanomethyl)phenoxy]-N-{3-[2-(4-chloro-3-fluorophenoxy)acetamido]bicyclo[1.1.1]pentan-1-yl}acetamide], the EC50 was 10 to 50 nM.
